This passage reports IC50 results from PMC3523717 (Angewandte Chemie (International ed. in English), 2012).

The target of this test is T1, Aurora kinase A (AKA) (Homo sapiens, UniProt O14965).
T1 sequence (O14965 1-403): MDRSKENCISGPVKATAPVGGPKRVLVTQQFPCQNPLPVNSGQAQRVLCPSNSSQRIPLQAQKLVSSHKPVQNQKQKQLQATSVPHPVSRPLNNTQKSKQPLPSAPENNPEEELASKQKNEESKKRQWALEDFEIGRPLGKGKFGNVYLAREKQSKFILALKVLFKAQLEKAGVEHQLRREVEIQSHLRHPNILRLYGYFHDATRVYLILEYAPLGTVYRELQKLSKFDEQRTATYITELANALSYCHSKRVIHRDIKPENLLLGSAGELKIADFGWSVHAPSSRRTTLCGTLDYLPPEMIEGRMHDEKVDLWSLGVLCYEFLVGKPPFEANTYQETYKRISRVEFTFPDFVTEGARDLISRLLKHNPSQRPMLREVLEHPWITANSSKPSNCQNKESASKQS
As to the kind of experiment: kinase activity assay. Type of test: biochemical.

In the case of MLN8054-TCO [compound 13], it took 0.0618 µM to reach half-maximal inhibition (IC50).
